Patent publication US8865623B2, “Herbicidally active cyclic diones and derivatives thereof, processes for their preparation, compositions, and method of controlling weeds” (Syngenta Limited, priority 2009, dated 2014)

Tests used:
Type in all cases: in vivo
Lolium perenne (LOLPE) [1] = assay: Pre-emergence herbicidal activity, glasshouse pot test; settings: Lolium perenne, 312 h; Rate 250 g/ha; pre-emergence spray; evaluated after 13 days; read-out: Pre-emergence activity LOLPE (100=total damage to plant; 0=no damage to plant)
Procedure: (§1) Seeds of a variety of test species were sown in standard soil in pots. After cultivation for one day (pre-emergence) or after 8 days cultivation (post-emergence) under controlled conditions in a glasshouse (at 24/16° C., day/night; 14 hours light; 65% humidity), the plants were sprayed with an aqueous spray solution derived from the formulation of the technical active ingredient in acetone/water (50:50) solution containing 0.5% Tween 20 (polyoxyethelyene sorbitan monolaurate, CAS RN 9005-64-5). The test plants were then grown in a glasshouse under controlled conditions in a glasshouse (at 24/16° C., day/night; 14 hours light; 65% humidity) and watered twice daily. After 13 days for pre and post-emergence, the test was evaluated (100=total damage to plant; 0=no damage to plant).
(§2) Lolium perenne (LOLPE), Alopecurus myosuroides (ALOMY), Echinochloa crus-galli (ECHCG), and Avena fatua (AVEFA).

Avena fatua (AVEFA) [2] = assay: as above; settings: Avena fatua, 312 h; Rate 250 g/ha; pre-emergence spray; evaluated after 13 days; read-out: Pre-emergence activity AVEFA (100=total damage to plant; 0=no damage to plant)
Procedure: as §1, §2

[3] = test system: Alopecurus myosuroides (ALOMY); assay: as above; settings: Alopecurus myosuroides, 312 h; Rate 250 g/ha; pre-emergence spray; evaluated after 13 days; read-out: Pre-emergence activity ALOMY (100=total damage to plant; 0=no damage to plant)
Procedure: as §1, §2

[4] = test system: Echinochloa crus-galli (ECHCG); assay: as above; settings: Echinochloa crus-galli, 312 h; Rate 250 g/ha; pre-emergence spray; evaluated after 13 days; read-out: Pre-emergence activity ECHCG (100=total damage to plant; 0=no damage to plant)
Procedure: as §1, §2

Lolium perenne (LOLPE) [5] = assay: Post-emergence herbicidal activity, glasshouse pot test; settings: Lolium perenne, 312 h, rate 250 g/ha, evaluated after 13 days, glasshouse, read-out: Post-emergence activity LOLPE (100=total damage to plant; 0=no damage to plant)
Procedure: as §1, §2

Avena fatua (AVEFA) [6] = assay: as above; settings: Avena fatua, 312 h, rate 250 g/ha, evaluated after 13 days, glasshouse, read-out: Post-emergence activity AVEFA (100=total damage to plant; 0=no damage to plant)
Procedure: as §1, §2

[7] = test system: Alopecurus myosuroides (ALOMY); assay: as above; settings: Alopecurus myosuroides, 312 h, rate 250 g/ha, evaluated after 13 days, glasshouse, read-out: Post-emergence activity ALOMY (100=total damage to plant; 0=no damage to plant)
Procedure: as §1, §2

[8] = test system: Echinochloa crus-galli (ECHCG); assay: as above; settings: Echinochloa crus-galli, 312 h, rate 250 g/ha, evaluated after 13 days, glasshouse, read-out: Post-emergence activity ECHCG (100=total damage to plant; 0=no damage to plant)
Procedure: as §1, §2

Row | Structure (SMILES) | pest or weed control at 250 g/ha (Lolium perenne (LOLPE) [1]) [%] | pest or weed control at 250 g/ha (Avena fatua (AVEFA) [2]) [%] | pest or weed control at 250 g/ha [3] [%] | pest or weed control at 250 g/ha [4] [%] | pest or weed control at 250 g/ha (Lolium perenne (LOLPE) [5]) [%] | pest or weed control at 250 g/ha (Avena fatua (AVEFA) [6]) [%] | pest or weed control at 250 g/ha [7] [%] | pest or weed control at 250 g/ha [8] [%]
1 | CCc1ccc(Oc2ccc(C(F)(F)F)cn2)cc1C1=C(O)CC(C)(C)CC1=O [Example A-83] | 90 | 90 | 70 | 100 | 60 | 100 | 90 | 100
2 | CCc1ccc(Oc2ccc(C#N)c(Cl)c2)cc1C1=C(O)CC2(CCOCC2)CC1=O [Example A-277] | 100 | 30 | 30 | 100 | 100 | 80 | 30 | 100
3 | CCc1ccc(Oc2nc3cc(Cl)ccc3s2)cc1C1=C(O)[C@H]2CC[C@H](C2)C1=O [Example A-339] | 90 | 80 | 100 | 100 | 100 | 90 | 100 | 100
4 | CCc1ccc(Oc2ncc(Cl)cn2)cc1C1=C(O)C(C)(C)OC(C)(C)C1=O [Example A-107] | 100 | 80 | 90 | 100 | 40 | 80 | 80 | 100
5 | CCc1ccc(Oc2ncc(C(F)(F)F)cc2F)cc1C1=C(O)C(C)(C)OC(C)(C)C1=O [Example A-62] | 100 | 100 | 100 | 100 | 100 | 100 | 100 | 100
6 | CCc1ccc(Oc2nc(F)c(Cl)c(Cl)c2Cl)cc1C1=C(O)C(C)(C)OC(C)(C)C1=O [Example A-60] | 40 | 0 | 0 | 50 | 0 | 0 | 0 | 0
7 | CCc1ccc(Oc2ncc(C(F)(F)F)cc2Cl)cc1C1=C(O)CC(C)(C)CC1=O [Example A-86] | 100 | 100 | 90 | 100 | 70 | 100 | 90 | 100
8 | CCc1ccc(Oc2ccc(Cl)cc2OC)cc1C1=C(O)C(C)(C)OC(C)(C)C1=O [Example A-181] | 0 | 0 | 0 | 0 | 20 | 0 | 0 | 30
9 | CCc1ccc(Oc2ccc(C(F)(F)F)cc2[N+](=O)[O-])cc1C1=C(O)[C@H]2CC[C@H](C2)C1=O [Example A-344] | 80 | 30 | 40 | 100 | 70 | 90 | 60 | 90
10 | CCc1ccc(Oc2ncc(C(F)(F)F)cc2C(F)(F)F)cc1C1=C(O)[C@@H]2CC[C@](C)(C1=O)C2(C)C [Example A-324] | 100 | 90 | 90 | 100 | 100 | 100 | 100 | 100
11 | CCc1ccc(Oc2ccc(F)cc2)cc1C1=C(O)CC2(CCOCC2)CC1=O [Example A-35] | 70 | 70 | 90 | 100 | 80 | 90 | 80 | 100
12 | CCc1ccc(Oc2nc3ccc([N+](=O)[O-])cc3s2)cc1C1=C(O)[C@H]2CC[C@H](C2)C1=O [Example A-342] | 100 | 60 | 90 | 100 | 60 | 70 | 60 | 100
13 | Cc1ccc(Oc2ccc(Cl)cc2)cc1C1=C(O)C(C)(C)OC(C)(C)C1=O [Example A-1] | – | 0 | 0 | 0 | – | 0 | 20 | 60
14 | CCc1ccc(Oc2ccccc2Cl)cc1C1=C(O)C(C)(C)OC(C)(C)C1=O [Example A-6] | – | 0 | 0 | 30 | – | 0 | 0 | 70
15 | CCc1ccc(Oc2cccc(Cl)c2)cc1C1=C(O)C(C)(C)OC(C)(C)C1=O [Example A-5] | – | 0 | 0 | 90 | – | 0 | 20 | 90
16 | CCc1ccc(Oc2ccc(OC(F)(F)F)cc2)cc1C1=C(O)C(C)(C)OC(C)(C)C1=O [Example A-242] | 80 | 40 | 70 | – | 100 | 100 | 100 | 100
17 | CCc1ccc(Oc2ccc(Cl)cc2C)cc1C1=C(O)C(C)(C)OC(C)(C)C1=O [Example A-180] | 0 | 0 | 0 | – | 10 | 0 | 0 | 30
18 | CCc1ccc(Oc2ccc(Br)cc2F)cc1C1=C(O)C(C)(C)OC(C)(C)C1=O [Example A-7] | – | 60 | 60 | 100 | – | 70 | 90 | 100
19 | CCc1ccc(Oc2cnc3cc(Cl)ccc3n2)cc1C1=C(O)[C@@H]2CC[C@](C)(C1=O)C2(C)C [Example A-243] | 100 | 80 | 90 | – | 100 | 100 | 100 | 100
20 | Cc1ccc(Oc2ccc(Cl)cc2Cl)cc1C1=C(O)C(C)(C)OC(C)(C)C1=O [Example A-2] | – | 0 | 0 | 0 | – | 50 | 60 | 90
21 | CCc1ccc(Oc2ccc(Cl)cc2)cc1C1=C(O)C(C)(C)OC(C)(C)C1=O [Example A-4] | – | 0 | 40 | 100 | – | 0 | 80 | 100
22 | CCc1ccc(Oc2ccc(F)c(C)c2)cc1C1=C(O)C(C)(C)OC(C)(C)C1=O [Example A-179] | 0 | 0 | 0 | – | 20 | 0 | 0 | 20
